Experimental data taken from patent US9695155B2, “Herbicidal substituted pyrimidinyloxy benzene compounds” (E. I. DU PONT DE NEMOURS AND COMPANY, priority 2013, dated 2017).

Columns and labels:
wheat, winter = test: Test C postemergence; type: in vivo, Triticum aestivum; settings: for Plant response rating, Wheat: scale 0 to 100 (0 no effect, 100 complete control)
Summary of the method: (§1)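 Visual injury score versus untreated controls, 0 = no effect, 100 = complete control, taken 13 to 15 days after treatment in the greenhouse. Pre-emergence pots held loam/sand; post-emergence plants grew in sphagnum peat/vermiculite mix and were sprayed at the 1- to 4-leaf stage.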

sedge, umbrella = test: Test B flooded paddy test; type: in vivo, Cyperus difformis; settings: Flood, 250 g ai/ha; 0 to 100 scale where 0 is no effect and 100 is complete control
Summary of the method: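 2-leaf stage plants; pots flooded to 3 cm, compound added to paddy water, depth maintained. Greenhouse 13–15 d. Visual rating vs untreated controls, 0 (no effect) to 100 (complete control); dash = no result.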

wheat = test: Test A postemergence; type: in vivo, Triticum aestivum
Summary of the method: (§2)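 Injury scores run from 0, no effect, to 100, complete control, judged by eye against untreated plants roughly 10 days after treatment. Chemicals carried a surfactant in a non-phytotoxic solvent and went onto loam–sand soil preemergence or onto one- to two-leaf seedlings postemergence.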

galium = test: Test C postemergence; type: in vivo, Galium aparine; settings: for Plant response rating, Galium: scale 0 to 100 (0 no effect, 100 complete control)
Summary of the method: as §1

lambsquarters = test: Test C postemergence; type: in vivo, Chenopodium album; settings: for Plant response rating, Lambsquarters: scale 0 to 100 (0 no effect, 100 complete control)
Summary of the method: as §1

Italian ryegrass = test: Test C postemergence; type: in vivo, Lolium multiflorum; settings: for Plant response rating, Ryegrass, Italian: scale 0 to 100 (0 no effect, 100 complete control)
Summary of the method: as §1

oilseed rape = test: Test C postemergence; type: in vivo, Brassica napus; settings: for Plant response rating, Oilseed Rape: scale 0 to 100 (0 no effect, 100 complete control)
Description: (§3) Seeds of plant species selected from blackgrass (Alopecurus myosuroides), Italian ryegrass (Lolium multiflorum), wheat, winter (winter wheat, Triticum aestivum), galium (catchweed bedstraw, Galium aparine), corn (Zea mays), large (Lg) crabgrass (Digitaria sanguinalis), giant foxtail (Setaria faberii), johnsongrass (Sorghum halepense), lambsquarters (Chenopodium album), morningglory (Ipomoea coccinea), yellow nutsedge (Cyperus esculentus), pigweed (Amaranthus retroflexus), ragweed (common ragweed, Ambrosia elatior), soybean (Glycine max), barnyardgrass (Echinochloa crus-galli), oilseed rape (Brassica napus), waterhemp (common waterhemp, Amaranthus rudis), kochia (Kochia scoparia), wild oat (Avena fatua), surinam grass (Brachiaria decumbens), foxtail, green (green foxtail, Setaria viridis), goosegrass (Eleusine indica), bromegrass, downy (downy bromegrass, Bromus tectorum), nightshade (eastern black nightshade, Solanum ptycanthum), cocklebur (common cocklebur, Xanthium strumarium), cupgrass, woolly (woolly cupgrass, Eriochloa villosa), bermudagrass (Cynodon dactylon), sunflower, (common oilseed sunflower, Helianthus annuus), Russian thistle (Salsola kali), and velvetleaf (Abutilon theophrasti) were planted into a blend of loam soil and sand and treated preemergence with test chemicals formulated in a non-phytotoxic solvent mixture which included a surfactant.
(§4) At the same time, plants selected from these crop and weed species and also barley, winter (winter barley, Hordeum vulgare), windgrass (Apera spica-venti), chickweed (common chickweed, Stellaria media), deadnettle (henbit deadnettle, Lamium amplexicaule), and canarygrass (littleseed canarygrass, Phalaris minor) were planted in pots containing Redi-Earth® planting medium (Scotts Company, 14111 Scottslawn Road, Marysville, Ohio 43041) comprising spaghnum peat moss, vermiculite, wetting agent and starter nutrients and treated with postemergence applications of test chemicals formulated in the same manner. Plants ranged in height from 2 to 18 cm (1- to 4-leaf stage) for postemergence treatments. Treated plants and controls were maintained in a greenhouse for 13 to 15 days, after which time all species were compared to controls and visually evaluated. Plant response ratings, summarized in Table C, are based on a scale of 0 to 100 where 0 is no effect and 100 is complete control. A dash (-) response means no test result.

velvetleaf [1] = test: Test C postemergence; type: in vivo, Abutilon theophrasti; settings: for Plant response rating, Velvetleaf: scale 0 to 100 (0 no effect, 100 complete control)
Summary of the method: as §1

barnyardgrass = test: Test C postemergence; type: in vivo, Echinochloa crus-galli; settings: for Plant response rating, Barnyardgrass: scale 0 to 100 (0 no effect, 100 complete control)
Description: as §3, §4

corn = test: Test A preemergence; type: in vivo, Zea mays
Summary of the method: as §2

velvetleaf [2] = test: Test A preemergence; type: in vivo, Abutilon theophrasti
Summary of the method: as §2

[3] = Postemergence, 31 g ai/ha, 13 to 15 days
[4] = 125 g ai/ha, 0 to 100 scale where 0 is no effect and 100 is complete control
[5] = 500 g ai/ha, 0 to 100 scale, 0 no effect, 100 complete control, approx. 10 days
[6] = 16 g ai/ha, postemergence, 0 is no effect, 100 is complete control
[7] = 125 g ai/ha, postemergence, visual rating

SMILES: N#Cc1cccc(Oc2ncc(F)cn2)c1-n1cc(Br)cn1 [Compound 62]
- Plant response rating (0 to 100), Wheat (wheat, winter; 125 g ai/ha, postemergence): 5
- Plant response rating (0 to 100), Wheat (wheat, winter; 250 g ai/ha, postemergence): 20
- Plant response rating, Wheat (wheat, winter; [3]): 0
- Plant response rating, Wheat (wheat, winter; Postemergence, 62 g ai/ha): 0
- Plant response rating, Sedge, Umbrella (sedge, umbrella): 80
- Plant response rating, Wheat (wheat; [4]): 20
- Plant response rating, Wheat (wheat; 500 g ai/ha, 0 to 100 scale, 0 no effect, 100 complete control): 100
- Plant response rating (0 to 100), Galium (galium; 125 g ai/ha, postemergence): 80
- Plant response rating (0 to 100), Galium (galium; 250 g ai/ha, postemergence): 95
- Plant response rating, Galium (galium; [3]): 65
- Plant response rating, Galium (galium; Postemergence, 62 g ai/ha): 65
- Plant response rating (0 to 100), Lambsquarters (lambsquarters; 125 g ai/ha, postemergence): 85
- Plant response rating (0 to 100), Lambsquarters (lambsquarters; 250 g ai/ha, postemergence): 90
- Plant response rating, Lambsquarters (lambsquarters; [3]): 60
- Plant response rating, Lambsquarters (lambsquarters; Postemergence, 62 g ai/ha): 60
- Plant response rating (0 to 100), Ryegrass, Italian (Italian ryegrass; 125 g ai/ha, postemergence): 5
- Plant response rating (0 to 100), Ryegrass, Italian (Italian ryegrass; 250 g ai/ha, postemergence): 15
- Plant response rating, Ryegrass, Italian (Italian ryegrass; [3]): 0
- Plant response rating, Ryegrass, Italian (Italian ryegrass; Postemergence, 62 g ai/ha): 0
- Plant response rating (0 to 100), Oilseed Rape (oilseed rape; 125 g ai/ha, postemergence): 60
- Plant response rating (0 to 100), Oilseed Rape (oilseed rape; 250 g ai/ha, postemergence): 75
- Plant response rating, Oilseed Rape (oilseed rape; [3]): 20
- Plant response rating, Oilseed Rape (oilseed rape; Postemergence, 62 g ai/ha): 20
- Plant response rating (0 to 100), Velvetleaf (velvetleaf [1]; 125 g ai/ha, postemergence): 75
- Plant response rating (0 to 100), Velvetleaf (velvetleaf [1]; 250 g ai/ha, postemergence): 85
- Plant response rating, Velvetleaf (velvetleaf [1]; [3]): 20
- Plant response rating, Velvetleaf (velvetleaf [1]; Postemergence, 62 g ai/ha): 20
- Plant response rating (0 to 100), Barnyardgrass (barnyardgrass; 125 g ai/ha, postemergence): 5
- Plant response rating (0 to 100), Barnyardgrass (barnyardgrass; 250 g ai/ha, postemergence): 10
- Plant response rating, Barnyardgrass (barnyardgrass; [3]): 0
- Plant response rating, Barnyardgrass (barnyardgrass; Postemergence, 62 g ai/ha): 5
- Plant response rating, Corn (corn; [4]): 0
- Corn plant response rating (corn; [5]): 90
- Plant response rating, Velvetleaf (velvetleaf [2]; [4]): 50
- Velvetleaf plant response rating (velvetleaf [2]; [5]): 100

SMILES: FCc1cccc(Oc2ncc(Br)cn2)c1-n1cc(C(F)(F)F)cn1 [Compound 120]
- Plant response rating (0 to 100), Wheat (wheat, winter; [6]): 0
- Plant response rating, Wheat (wheat, winter; [7]): 0
- Plant response rating, Wheat (wheat, winter; Postemergence, 62 g ai/ha): 0
- Plant response rating, Sedge, Umbrella (sedge, umbrella): 95
- Plant response rating, Wheat (wheat; 31 g ai/ha, 0 to 100 scale, 0 no effect, 100 complete control): 0
- Plant response rating (0 to 100), Galium (galium; [6]): 30
- Plant response rating, Galium (galium; [7]): 60
- Plant response rating, Galium (galium; Postemergence, 62 g ai/ha): 30
- Plant response rating (0 to 100), Lambsquarters (lambsquarters; [6]): 55
- Plant response rating, Lambsquarters (lambsquarters; [7]): 85
- Plant response rating, Lambsquarters (lambsquarters; Postemergence, 62 g ai/ha): 70
- Plant response rating (0 to 100), Ryegrass, Italian (Italian ryegrass; [6]): 0
- Plant response rating, Ryegrass, Italian (Italian ryegrass; [7]): 5
- Plant response rating, Ryegrass, Italian (Italian ryegrass; Postemergence, 62 g ai/ha): 0
- Plant response rating (0 to 100), Oilseed Rape (oilseed rape; [6]): 5
- Plant response rating, Oilseed Rape (oilseed rape; [7]): 15
- Plant response rating, Oilseed Rape (oilseed rape; Postemergence, 62 g ai/ha): 5
- Plant response rating (0 to 100), Velvetleaf (velvetleaf [1]; [6]): 10
- Plant response rating, Velvetleaf (velvetleaf [1]; [7]): 50
- Plant response rating, Velvetleaf (velvetleaf [1]; Postemergence, 62 g ai/ha): 35
- Plant response rating (0 to 100), Barnyardgrass (barnyardgrass; [6]): 5
- Plant response rating, Barnyardgrass (barnyardgrass; [7]): 10
- Plant response rating, Barnyardgrass (barnyardgrass; [3]): 5
- Plant response rating, Barnyardgrass (barnyardgrass; Postemergence, 62 g ai/ha): 10
